Experimental findings from patent US20240287070A1, “FUSED HETEROCYCLIC DERIVATIVES” (Janssen Sciences Ireland Unlimited Company, priority 2021, published 2024) are described below.

One may read the EC50 as the midpoint of the concentration-response curve. One may read the CC50 as the concentration at which the toxic effect on the cells reaches its halfway point. A low value points to harm at low concentration.

Data set [1] has as its system HBV (HepG2.117 cell line, inducibly HBV producing). Nature of the data set: Anti-HBV activity, intracellular HBV DNA by real-time PCR in HepG2.117 cell line. Format: cell-based, hepatitis B virus. Particulars: HepG2.117 cells, 3 days of treatment. Here is the method: The anti HBV activity was measured using the HepG2.117 cell line, a stable, inducibly HBV producing cell line, which replicates HBV in the absence of doxycycline (Tet-off system). The HepG2 cell line is available from ATCCR under number HB-8065. Transfection of the HepG2 cell line can be as described in Sun and Nassal 2006 Journal of Hepatology 45 (2006) 636-645 “Stable HepG2- and Huh7-based human hepatoma cell lines for efficient regulated expression of infectious hepatitis B virus”.
For the antiviral assay, HBV replication was induced, followed by a treatment with serially diluted compound in 96-well plates. After 3 days of treatment, the antiviral activity was determined by quantification of intracellular HBV DNA using real-time PCR and an HBV specific primer set and probe.

The nature of data set [2]: Cytotoxicity, ATPlite Luminescence Assay. In kind it is cell-based, human. Particulars: human, HepG2 or HepG2.117 cells, 3-days incubation unless marked with *. Here is the method:
Cytotoxicity of the compounds was tested using HepG2 or HepG2.117 cells, incubated for 3 or 4 days in the presence of compounds. The viability of the cells was assessed using the PERKIN ELMER ATPlite Luminescence Assay System.”
(In general: ATP-based viability assays read luminescence as a measure of living cells.)

Data set [3] in a line: Human liver microsome stability. Format: in vitro ADME. Particulars: 1 μM compound, NADPH 1 mM, 37° C., 0-60 min; for half-life at 1 μM: human, pooled human liver microsomes, pH 7.4, pooled human liver microsomes 0.5 mg/mL, read-out: HLM Metabolism t1/2; for HLM Metabolism t1/2: pooled human liver microsomes 0.5 mg/mL. Here is the method: Human Liver Microsome Stability t½ (Min) of Compounds of Formula (I) […] All incubations are performed singularly for each compound. NADPH was added to initiate the reaction with the final concentration of 1 mM and the final incubation volume of 400 μL. At 6 time points (0, 5, 10, 20, 40 and 60 min) reactions were stopped by the removal of 50 μL of the incubation mixture into plates containing acetonitrile at a of 1:3 (v:v). The plates were centrifuged at 3000 rpm for 10 min at 4° C. to precipitate the protein. Following protein precipitation, the sample supernatants were combined in cassettes of up to 8 compounds. The internal standard was added (1:1 supernatant to internal standard solution) and samples were analyzed using standard LC-MS conditions. From a plot of ln peak area ratio (compound peak area/internal standard peak area) against time, the gradient of the line is determined. Subsequently, half-life is calculated using the equations below: Elimination rate constant (k)=(−gradient) […]
(In general: Microsomes from liver hold many membrane-bound enzymes, among them those of drug oxidation.)

Setting [4] is: Hepatitis B virus, HepG2.117, 72 h.

Regarding `CC(c1ccc(C#N)cc1)N1C[C@@H](C)n2nc3c(c2C1=O)CN(C(=O)c1ccc(Cl)c(Cl)c1)[C@H](C)C3` (single isomer, unassigned) [Compound 66A, 4-((R*)-1-((3R,7R)-2-(3,4-dichlorobenzoyl)-3,7-dimethyl-10-oxo-1,3,4,7,8,10-hexahydropyrido[4′,3′:3,4]pyrazolo[1,5-a]pyrazin-9(2H)-yl)ethyl)benzonitrile], in data set [1], the EC50 was determined as 0.037 µM. For the same compound, in data set [2], the CC50 at 3 days is > 26.2 µM. Moreover, the half-life at 1 μM in data set [3] is > 3 h.
The like results for `CC(c1ccn(CC(C)(C)O)c(=O)c1)N1C[C@@H](C)n2nc3c(c2C1=O)CN(C(=O)c1ccc(Cl)c(C(F)(F)F)c1)[C@H](C)C3` (single isomer, unassigned) [Compound 64A, (3R,7R)-2-(4-chloro-3-(trifluoromethyl)benzoyl)-9-((R*)-1-(1-(2-hydroxy-2-methylpropyl)-2-oxo-1,2-dihydropyridin-4-yl)ethyl)-3,7-dimethyl-1,2,3,4,8,9-hexahydropyrido[4′,3′:3,4]pyrazolo[1,5-a]pyrazin-10(7H)-one] were, in that order, 0.039 µM, > 50 µM and 1.82 h.
For the compound `Cc1ccc(C(C)N2C[C@@H](C)n3nc4c(c3C2=O)CN(C(=O)c2ccc(Cl)c(Cl)c2)[C@H](C)C4)nn1` (single isomer, unassigned) [Compound 6A, (3R,7R)-2-(3,4-dichlorobenzoyl)-3,7-dimethyl-9-((R*)-1-(6-methylpyridazin-3-yl)ethyl)-1,2,3,4,8,9-hexahydropyrido[4′,3′:3,4]pyrazolo[1,5-a]pyrazin-10(7H)-one], in data set [1] (setting [4]), the response was half-maximal at 0.086 µM (EC50). The CC50 at 3 days in data set [2] is > 50 µM. Also, the “HLM Metabolism t1/2” value in data set [3] came out at 1.18 h.
`CC(c1ccc(C(C)(C)O)nc1)N1C[C@@H](C)n2nc3c(c2C1=O)CN(C(=O)c1cc(F)c(Cl)c(F)c1)[C@H](C)C3` (single isomer, unassigned) [Compound 60A, (3R,7R)-2-(4-chloro-3,5-difluorobenzoyl)-9-((R*)-1-(6-(2-hydroxypropan-2-yl)pyridin-3-yl)ethyl)-3,7-dimethyl-1,2,3,4,8,9-hexahydropyrido[4′,3′:3,4]pyrazolo[1,5-a]pyrazin-10(7H)-one]: the EC50 in data set [1] came out at 0.3 µM. In data set [2], the CC50 at 3 days is > 50 µM. In data set [3], the half-life at 1 μM was > 3 h.
In turn, `CC(c1ccn(C(F)F)c(=O)c1)N1C[C@@H](C)n2nc3c(c2C1=O)CN(C(=O)c1ccc(Cl)c(C(F)(F)F)c1)[C@H](C)C3` (single isomer, unassigned) [Compound 49A, (3R,7R)-2-(4-chloro-3-(trifluoromethyl)benzoyl)-9-((R*)-1-(1-(difluoromethyl)-2-oxo-1,2-dihydropyridin-4-yl)ethyl)-3,7-dimethyl-1,2,3,4,8,9-hexahydropyrido [4′,3′:3,4]pyrazolo[1,5-a]pyrazin-10(7H)-one] displayed an EC50 in data set [1] of 0.041 µM. The CC50 at 3 days in data set [2] is > 50 µM. Also, the “HLM Metabolism t1/2” value in data set [3] came to 1.32 h.
For the compound `CN=[S@](C)(=O)c1ccc([C@@H](C)N2C[C@@H](C)n3nc4c(c3C2=O)CN(C(=O)c2ccc(Cl)c(Cl)c2)[C@H](C)C4)cn1` (relative stereo) [Compound 29A, (3R,7R)-2-(3,4-dichlorobenzoyl)-9-((R*)-1-(6-((R*)—N,S-dimethylsulfonimidoyl)pyridin-3-yl)ethyl)-3,7-dimethyl-1,2,3,4,8,9-hexahydropyrido[4′,3′:3,4]pyrazolo[1,5-a]pyrazin-10(7H)-one], the EC50 in data set [1] (setting [4]) came out at 0.74 µM. For the same compound, the CC50 at 3 days in data set [2] is > 50 µM. Further, the half-life at 1 μM in data set [3] came to 1.7 h.
The like results for `C[C@@H]1Cc2nn3c(c2CN1C(=O)c1ccc(Cl)c(Cl)c1)C(=O)N([C@H](C)c1ccc([S@](C)(=N)=O)cc1)C[C@H]3C` (relative stereo) [Compound 18A, (3R,7R)-2-(3,4-dichlorobenzoyl)-3,7-dimethyl-9-((R*)-1-(4-((R*)—S-methylsulfonimidoyl)phenyl)ethyl)-1,2,3,4,8,9-hexahydropyrido[4′,3′:3,4]pyrazolo[1,5-a]pyrazin-10(7H)-one] were, in that order, 0.084 µM, > 50 µM and > 3 h.
In turn, `Cc1nnnn1-c1ccc(C(C)N2C[C@@H](C)n3nc4c(c3C2=O)CN(C(=O)c2ccc(Cl)c(Cl)c2)[C@H](C)C4)cn1` (single isomer, unassigned) [Compound 27A, (3R,7R)-2-(3,4-dichlorobenzoyl)-3,7-dimethyl-9-((R*)-1-(6-(5-methyl-1H-tetrazol-1-yl)pyridin-3-yl)ethyl)-1,2,3,4,8,9-hexahydropyrido[4′,3′:3,4]pyrazolo[1,5-a]pyrazin-10(7H)-one] returned an EC50 in data set [1] of 0.24 µM. The CC50 at 3 days in data set [2] is > 50 µM. Further, the “HLM Metabolism t1/2” value in data set [3] was >3 h.
As to `CC(c1cc(F)c(=O)n(C2CC2)c1)N1C[C@@H](C)n2nc3c(c2C1=O)CN(C(=O)c1ccc(Cl)c(Cl)c1)[C@H](C)C3` (single isomer, unassigned) [Compound 46A, (3R,7R)-9-((R*)-1-(1-cyclopropyl-5-fluoro-6-oxo-1,6-dihydropyridin-3-yl)ethyl)-2-(3,4-dichlorobenzoyl)-3,7-dimethyl-1,2,3,4,8,9-hexahydropyrido[4′,3′:3,4]pyrazolo[1,5-a]pyrazin-10(7H)-one], the EC50 in data set [1] turned out to be 0.31 µM. In addition, the CC50 at 3 days in data set [2] is > 50 µM. The half-life at 1 μM in data set [3] is > 3 h.
In data set [1], `CC(c1cnc(C(C)(C)O)cn1)N1C[C@@H](C)n2nc3c(c2C1=O)CN(C(=O)c1ccc(Cl)c(C(F)(F)F)c1)[C@H](C)C3` (single isomer, unassigned) [Compound 41A, (3R,7R)-2-(4-chloro-3-(trifluoromethyl)benzoyl)-9-((R*)-1-(5-(2-hydroxypropan-2-yl)pyrazin-2-yl)ethyl)-3,7-dimethyl-1,2,3,4,8,9-hexahydropyrido[4′,3′:3,4]pyrazolo[1,5-a]pyrazin-10(7H)-one] yielded an EC50 of 0.076 µM. Moreover, in data set [2], the CC50 at 3 days is > 50 µM. Further, in data set [3], the half-life at 1 μM was > 3 h.
In data set [1], `Cc1nnc(C(C)N2C[C@@H](C)n3nc4c(c3C2=O)CN(C(=O)c2ccc(Cl)c(Cl)c2)[C@H](C)C4)o1` (single isomer, unassigned) [Compound 43A, (3R,7R)-2-(3,4-dichlorobenzoyl)-3,7-dimethyl-9-((R*)-1-(5-methyl-1,3,4-oxadiazol-2-yl)ethyl)-1,2,3,4,8,9-hexahydropyrido[4′,3′:3,4]pyrazolo[1,5-a]pyrazin-10(7H)-one] came in with an EC50 of 0.31 µM. Also, the CC50 at 3 days in data set [2] is > 50 µM. Besides, the half-life at 1 μM in data set [3] was > 3 h.
The like results for `CC(c1ccc(C(C)(C)O)nc1)N1C[C@@H](C)n2nc3c(c2C1=O)CN(C(=O)c1ccc(Cl)c(Cl)c1)[C@H](C)C3` (single isomer, unassigned) [Compound 2A, (3R,7R)-2-(3,4-dichlorobenzoyl)-9-((R*)-1-(6-(2-hydroxypropan-2-yl)pyridin-3-yl)ethyl)-3,7-dimethyl-1,2,3,4,8,9-hexahydropyrido[4′,3′:3,4]pyrazolo[1,5-a]pyrazin-10(7H)-one] were, in that order, 0.099 µM, > 50 µM and > 3 h.
